Measured values published in patent US20260166313A1, “WIRELESS PATCH SYSTEM FOR TRANSDERMAL, TRANSMUCOSAL AND DENTAL ELECTRICAL DRUG DELIVERY” (priority 2015, published 2026).

Assay: ACEK effect (DEP, ACEO, ACET) on drug particles over the inductively powered IDE, observed by light microscopy
Format: physicochemical
Conditions: for negative DEP (nDEP) detection / ACET effect detection: any frequency range; for negative DEP (nDEP) detection: DI water
Excerpt: In order to study the functionality of the patch in terms of a demodulation circuit and ACEK effect, a very simple set-up was constructed which is shown in FIG. 2C. The experimental set-up includes the dental patch, an optical microscope, AC waveform generators, a digital oscilloscope and some probe connectors. A microchamber was sealed over the IDE to hold the solution (FIG. 2C). […] The movement of particles was observed by an optical microscope NIKON ECLIPSE LV100 (Nikon Instruments, Inc., Melville, New York, United States of America) and the images from the microscope were acquired by a Roper Scientific (Tucson, Arizona, United States of America) digital camera and subsequently transferred to a computer. An AM signal with the amplitude of 10 V was applied to the primary coil. The AM signal applied to the primary coil was generated by two Agilent Arbitrary Waveform Generators (model 33220A). The carrier signal frequency was 8 MHz. The separation between primary and secondary coil is 10 mm. An Agilent Mixed Signal Oscilloscope (model MSO6012A) was used to record the demodulated signal. […] The frequency of the modulating signal was continuously swept in order to find an appropriate frequency at which ACEK effect occurs. […] The ACEK effect on Tetracycline, Acetaminophen, Benzocaine and Lidocaine was studied.

| SMILES | negative DEP (nDEP) detection | ACET effect detection | frequency of maximum ACEO vortices (field 15 Vpp/mm) | frequency of maximum ACEO vortices (field 10 Vpp/mm) |
| --- | --- | --- | --- | --- |
| CC(=O)Nc1ccc(O)cc1 [acetaminophen] | No negative DEP (nDEP) was detected | – | – | – |
| CCOC(=O)c1ccc(N)cc1 [benzocaine] | No nDEP or ACET effects were detected | No nDEP or ACET effects were detected | 1 KHz | – |
| CCN(CC)CC(=O)Nc1c(C)cccc1C [lidocaine] | No nDEP or ACET effects were detected | No nDEP or ACET effects were detected | – | 500 Hz |
